Laboratory results: patent publication US6737383B1, “Herbicidal oxadiazolidines” (priority 1999, dated 2004)

Assays:
rape = assay: Test B pre/postemergence rape; type: in vivo, Brassica napus
How it was run: (§1)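 Response is a visual 0-to-10 score relative to untreated plants, where 0 means no effect and 10 means complete control, taken twelve to sixteen days after application. Treatments went onto soil at planting and onto foliage of 1- to 4-leaf plants, using a surfactant-containing non-phytotoxic solvent.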

crabgrass = assay: Test B pre/postemergence crabgrass; type: in vivo, Digitaria sanguinalis
How it was run: as §1

pigweed = assay: Test B pre/postemergence pigweed; type: in vivo, Amaranthus retroflexus
How it was run: as §1

purple nutsedge = assay: Test B pre/postemergence purple nutsedge; type: in vivo, Cyperus rotundus
How it was run: as §1

surinam grass = assay: Test B pre/postemergence surinam grass; type: in vivo, Brachiaria decumbens
How it was run: as §1

wild oat = assay: Test B pre/postemergence wild oat; type: in vivo, Avena fatua
How it was run: as §1

bedstraw = assay: Test B pre/postemergence bedstraw; type: in vivo, Galium aparine
How it was run: as §1

velvetleaf = assay: Test B pre/postemergence velvetleaf; type: in vivo, Abutilon theophrasti
How it was run: as §1

wheat = assay: Test B pre/postemergence wheat; type: in vivo, Triticum aestivum
How it was run: as §1

giant foxtail = assay: Test B pre/postemergence giant foxtail; type: in vivo, Setaria faberii
How it was run: as §1

corn = assay: Test B pre/postemergence corn; type: in vivo, Zea mays
How it was run: as §1

sugar beet = assay: Test B pre/postemergence sugar beet; type: in vivo, Beta vulgaris
How it was run: as §1

cocklebur = assay: Test B pre/postemergence cocklebur; type: in vivo, Xanthium strumarium
How it was run: as §1

blackgrass = assay: Test B pre/postemergence blackgrass; type: in vivo, Alopecurus myosuroides
How it was run: as §1

soybean = assay: Test B pre/postemergence soybean; type: in vivo, Glycine max
How it was run: as §1

morningglory = assay: Test B pre/postemergence morningglory; type: in vivo, Ipomoea hederacea
How it was run: as §1

[1] = Postemergence, Rate 62 g/ha, scale 0 to 10, 0 is no effect, 10 is complete control
[2] = Postemergence, Rate 125 g/ha, scale of 0 to 10 where 0 is no effect and 10 is complete control
[3] = Preemergence, Rate 62 g/ha, scale of 0 to 10 where 0 is no effect and 10 is complete control
[4] = Preemergence, Rate 125 g/ha, scale of 0 to 10 where 0 is no effect and 10 is complete control
[5] = Preemergence, Rate 250 g/ha, scale 0 to 10 (0 no effect, 10 complete control)
[6] = Preemergence, Rate 500 g/ha, scale of 0 to 10 where 0 is no effect and 10 is complete control
[7] = Rate 500 g/ha, Postemergence, scale 0 to 10, 0 is no effect, 10 is complete control
[8] = Postemergence, Rate 250 g/ha, scale of 0 to 10, 0 is no effect, 10 is complete control

Compound: CC(C)N(C(=O)n1oc(=O)n(Cc2nnc(Cl)s2)c1=O)c1ccccc1 [Compound 654]
- Plant response rating, Rape (rape; [1]): 0
- Rape plant response rating (rape; [2]): 0
- Rape plant response rating (rape; [3]): 0
- Rape plant response rating (rape; [4]): 0
- Plant response rating, Rape (rape; [5]): 0
- Plant response rating, Rape (rape; [6]): 0
- Rape plant response rating (rape; [7]): 0
- Plant response rating, Crabgrass (crabgrass; [1]): 0
- Crabgrass plant response rating (crabgrass; [2]): 0
- Crabgrass plant response rating (crabgrass; [8]): 2
- Crabgrass plant response rating (crabgrass; [3]): 0
- Crabgrass plant response rating (crabgrass; [4]): 3
- Plant response rating, Crabgrass (crabgrass; [5]): 7
- Plant response rating, Crabgrass (crabgrass; [6]): 9
- Crabgrass plant response rating (crabgrass; [7]): 7
- Plant response rating, Redroot pigweed (pigweed; [1]): 0
- Redroot pigweed plant response rating (pigweed; [2]): 0
- Redroot pigweed plant response rating (pigweed; [3]): 0
- Redroot pigweed plant response rating (pigweed; [4]): 0
- Plant response rating, Redroot pigweed (pigweed; [5]): 3
- Plant response rating, Redroot pigweed (pigweed; [6]): 5
- Redroot pigweed plant response rating (pigweed; [7]): 0
- Plant response rating, Nutsedge (purple nutsedge; [1]): 0
- Nutsedge plant response rating (purple nutsedge; [2]): 0
- Nutsedge plant response rating (purple nutsedge; [3]): 0
- Plant response rating, Nutsedge (purple nutsedge; [5]): 0
- Plant response rating, Nutsedge (purple nutsedge; [6]): 0
- Plant response rating, B. signalgrass (surinam grass; [1]): 0
- Plant response rating, B. signalgrass (surinam grass; [2]): 0
- B. signalgrass plant response rating (surinam grass; [8]): 0
- B. signalgrass plant response rating (surinam grass; [3]): 0
- B. signalgrass plant response rating (surinam grass; [4]): 0
- Plant response rating, B. signalgrass (surinam grass; [5]): 0
- Plant response rating, B. signalgrass (surinam grass; [6]): 7
- B. signalgrass plant response rating (surinam grass; [7]): 0
- Plant response rating, Wild oats (wild oat; [1]): 0
- Wild oats plant response rating (wild oat; [2]): 0
- Wild oats plant response rating (wild oat; [3]): 0
- Wild oats plant response rating (wild oat; [4]): 0
- Plant response rating, Wild oats (wild oat; [5]): 0
- Plant response rating, Wild oats (wild oat; [6]): 2
- Wild oats plant response rating (wild oat; [7]): 0
- Bedstraw plant response rating (bedstraw; [8]): 0
- Bedstraw plant response rating (bedstraw; [3]): 0
- Bedstraw plant response rating (bedstraw; [4]): 0
- Plant response rating, Bedstraw (bedstraw; [5]): 0
- Plant response rating, Bedstraw (bedstraw; [6]): 0
- Bedstraw plant response rating (bedstraw; [7]): 0
- Plant response rating, Velvetleaf (velvetleaf; [1]): 0
- Velvetleaf plant response rating (velvetleaf; [2]): 0
- Velvetleaf plant response rating (velvetleaf; [3]): 0
- Velvetleaf plant response rating (velvetleaf; [4]): 0
- Plant response rating, Velvetleaf (velvetleaf; [5]): 0
- Plant response rating, Velvetleaf (velvetleaf; [6]): 0
- Velvetleaf plant response rating (velvetleaf; [7]): 0
- Plant response rating, Wheat (wheat; [1]): 0
- Wheat plant response rating (wheat; [2]): 0
- Wheat plant response rating (wheat; [3]): 0
- Wheat plant response rating (wheat; [4]): 0
- Plant response rating, Wheat (wheat; [5]): 0
- Plant response rating, Wheat (wheat; [6]): 0
- Wheat plant response rating (wheat; [7]): 0
- Plant response rating, Giant foxtail (giant foxtail; [1]): 0
- Giant foxtail plant response rating (giant foxtail; [2]): 2
- Giant foxtail plant response rating (giant foxtail; [8]): 5
- Giant foxtail plant response rating (giant foxtail; [3]): 0
- Giant foxtail plant response rating (giant foxtail; [4]): 6
- Plant response rating, Giant foxtail (giant foxtail; [5]): 9
- Plant response rating, Giant foxtail (giant foxtail; [6]): 9
- Giant foxtail plant response rating (giant foxtail; [7]): 7
- Plant response rating, Corn (corn; [1]): 0
- Corn plant response rating (corn; [2]): 0
- Corn plant response rating (corn; [8]): 0
- Corn plant response rating (corn; [3]): 0
- Corn plant response rating (corn; [4]): 0
- Plant response rating, Corn (corn; [5]): 0
- Plant response rating, Corn (corn; [6]): 0
- Corn plant response rating (corn; [7]): 0
- Plant response rating, Sugarbeets (sugar beet; [1]): 0
- Sugarbeets plant response rating (sugar beet; [2]): 0
- Sugarbeets plant response rating (sugar beet; [3]): 0
- Sugarbeets plant response rating (sugar beet; [4]): 0
- Plant response rating, Sugarbeets (sugar beet; [5]): 0
- Plant response rating, Sugarbeets (sugar beet; [6]): 0
- Sugarbeets plant response rating (sugar beet; [7]): 0
- Plant response rating, Cocklebur (cocklebur; [1]): 0
- Cocklebur plant response rating (cocklebur; [2]): 0
- Cocklebur plant response rating (cocklebur; [8]): 0
- Cocklebur plant response rating (cocklebur; [3]): 0
- Cocklebur plant response rating (cocklebur; [4]): 0
- Plant response rating, Cocklebur (cocklebur; [5]): 0
- Plant response rating, Cocklebur (cocklebur; [6]): 0
- Cocklebur plant response rating (cocklebur; [7]): 0
- Plant response rating, Blackgrass (blackgrass; [1]): 0
- Blackgrass plant response rating (blackgrass; [2]): 0
- Blackgrass plant response rating (blackgrass; [8]): 0
- Blackgrass plant response rating (blackgrass; [3]): 0
- Blackgrass plant response rating (blackgrass; [4]): 0
- Plant response rating, Blackgrass (blackgrass; [5]): 2
- Plant response rating, Blackgrass (blackgrass; [6]): 7
- Blackgrass plant response rating (blackgrass; [7]): 0
- Plant response rating, Soybean (soybean; [1]): 0
- Soybean plant response rating (soybean; [2]): 0
- Soybean plant response rating (soybean; [3]): 0
- Soybean plant response rating (soybean; [4]): 0
- Plant response rating, Soybean (soybean; [5]): 0
- Plant response rating, Soybean (soybean; [6]): 0
- Soybean plant response rating (soybean; [7]): 0
- Plant response rating, Morningglory (morningglory; [1]): 3
- Morningglory plant response rating (morningglory; [2]): 4
- Morningglory plant response rating (morningglory; [8]): 10
- Morningglory plant response rating (morningglory; [3]): 0
- Morningglory plant response rating (morningglory; [4]): 0
- Plant response rating, Morningglory (morningglory; [5]): 0
- Plant response rating, Morningglory (morningglory; [6]): 0
- Morningglory plant response rating (morningglory; [7]): 10
